Source: patent US10294202B2, “Pyrrolidinones as herbicides” (FMC Corporation, priority 2013, dated 2019)

Legend:
[1] = tested on: ducksalad; experiment: Test B flooded paddy test; assay type: in vivo, Heteranthera limosa; details: 500 g ai/ha, Flood; scale of 0 to 100 where 0 is no effect and 100 is complete control
How it was run: (§1)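 Visual ratings from 0, meaning no effect, up to 100, meaning complete control, were made by comparison with untreated controls 13 to 15 days after treatment. Test compounds went straight into floodwater standing 3 cm over the soil of pots holding 2-leaf seedlings.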

[2] = tested on: kochia; experiment: Test A pre-/postemergence herbicide test; assay type: in vivo, Kochia scoparia
How it was run: (§2)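 Visual injury ratings, 0 = no effect, 100 = complete control, taken ~10 days after treatment against untreated greenhouse controls. Preemergence: directed soil spray onto seeded loam/sand pots. Postemergence: spray onto plants at one- to two-leaf stage, 2–10 cm tall.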

[3] = tested on: barnyardgrass; experiment: Test B flooded paddy test; assay type: in vivo, Echinochloa crus-galli; details: 500 g ai/ha, Flood; scale of 0 to 100 where 0 is no effect and 100 is complete control
How it was run: as §1

[4] = tested on: corn; experiment: Test A pre-/postemergence herbicide test; assay type: in vivo, Zea mays; details: Postemergence
How it was run: as §2

[5] = tested on: ragweed; experiment: Test A pre-/postemergence herbicide test; assay type: in vivo, Ambrosia elatior
How it was run: as §2

[6] = tested on: galium; experiment: Test A postemergence herbicide test; assay type: in vivo, Galium aparine
How it was run: (§3)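 Injury was rated visually about 10 days after treatment on a 0 (no effect) to 100 (complete control) scale, compared with untreated plants. Test chemicals were sprayed postemergence onto greenhouse plants 2–10 cm high at one to two leaves, grown in a loam–sand blend.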

[7] = tested on: blackgrass; experiment: Test A postemergence herbicide test; assay type: in vivo, Alopecurus myosuroides
How it was run: as §3

[8] = tested on: ryegrass, Italian; experiment: Test A pre-/postemergence herbicide test; assay type: in vivo, Lolium multiflorum
How it was run: as §2

[9] = tested on: wheat; experiment: Test A pre-/postemergence herbicide test; assay type: in vivo, Triticum aestivum; details: Postemergence
How it was run: as §2

[10] = tested on: rice; experiment: Test B flooded paddy test; assay type: in vivo, Oryza sativa; details: 500 g ai/ha, Flood; scale of 0 to 100 where 0 is no effect and 100 is complete control
How it was run: as §1

[11] = tested on: sedge, umbrella; experiment: Test B flooded paddy test; assay type: in vivo, Cyperus difformis; details: 500 g ai/ha, Flood; scale of 0 to 100 where 0 is no effect and 100 is complete control
How it was run: as §1

[12] = tested on: pigweed; experiment: Test A pre-/postemergence herbicide test; assay type: in vivo, Amaranthus retroflexus
How it was run: as §2

[13] = tested on: barnyardgrass; experiment: Test A pre-/postemergence herbicide test; assay type: in vivo, Echinochloa crus-galli
How it was run: as §2

[14] = tested on: giant foxtail; experiment: Test A pre-/postemergence herbicide test; assay type: in vivo, Setaria faberii
How it was run: as §2

[15] = 125 g ai/ha, visual rating, 0 to 100 scale, 0 no effect, 100 complete control, approximately 10 days, preemergence
[16] = Postemergence, 125 g ai/ha, 0 to 100 scale, 0 is no effect, 100 is complete control
[17] = preemergence, 500 g ai/ha, 0 to 100 scale, 0 is no effect and 100 is complete control
[18] = 125 g ai/ha, 0 to 100 scale, 0 is no effect, 100 is complete control
[19] = Postemergence, 125 g ai/ha, visual rating on 0 to 100 scale (0 no effect, 100 complete control), approx. 10 days
[20] = Postemergence, 500 g ai/ha, 0 to 100 scale (0 no effect, 100 complete control)
[21] = Preemergence, 125 g ai/ha, 0 to 100 scale where 0 is no effect and 100 is complete control
[22] = 125 g ai/ha, visual rating on 0 to 100 scale (0 no effect, 100 complete control), approx. 10 days
[23] = 500 g ai/ha, 0 to 100 scale (0 no effect, 100 complete control)

Compound: CCc1cccc(C2CNC(=O)C2C(=O)Nc2ccccc2F)c1 (racemic) [Compound 169]
- Plant response rating, Ducksalad [1]: 100
- Plant response rating, Kochia [2, 15]: 40
- Plant response rating, Kochia [2, 16]: 0
- Kochia plant response rating (0 to 100 scale, 0 is no effect, 100 is complete control) ([2]; Postemergence, 500 g ai/ha): 40
- Plant response rating, Kochia [2, 17]: 60
- Plant response rating, Barnyardgrass [3]: 80
- Plant response rating, Corn [4, 18]: 0
- Corn plant response rating (0 to 100 scale, 0 is no effect, 100 is complete control) ([4]; 500 g ai/ha): 50
- Plant response rating, Ragweed [5, 15]: 0
- Plant response rating, Ragweed [5, 16]: 0
- Ragweed plant response rating (0 to 100 scale, 0 is no effect, 100 is complete control) ([5]; Postemergence, 500 g ai/ha): 0
- Plant response rating, Ragweed [5, 17]: 20
- Plant response rating, Galium [6, 18]: 20
- Galium plant response rating (0 to 100 scale, 0 is no effect, 100 is complete control) ([6]; 500 g ai/ha): 50
- Plant response rating, Blackgrass [7, 18]: 30
- Blackgrass plant response rating (0 to 100 scale, 0 is no effect, 100 is complete control) ([7]; 500 g ai/ha): 60
- Plant response rating, Ryegrass, Italian [8, 15]: 0
- Plant response rating, Ryegrass, Italian [8, 16]: 20
- Ryegrass, Italian plant response rating (0 to 100 scale, 0 is no effect, 100 is complete control) ([8]; Postemergence, 500 g ai/ha): 40
- Plant response rating, Ryegrass, Italian [8, 17]: 20
- Plant response rating, Wheat [9, 18]: 0
- Wheat plant response rating (0 to 100 scale, 0 is no effect, 100 is complete control) ([9]; 500 g ai/ha): 50
- Plant response rating, Rice [10]: 0
- Plant response rating, Sedge, Umbrella [11]: 0
- Plant response rating, Pigweed [12, 15]: 0
- Plant response rating, Pigweed [12, 16]: 0
- Pigweed plant response rating (0 to 100 scale, 0 is no effect, 100 is complete control) ([12]; Postemergence, 500 g ai/ha): 0
- Plant response rating, Pigweed [12, 17]: 20
- Plant response rating, Barnyardgrass [13, 15]: 90
- Plant response rating, Barnyardgrass [13, 16]: 90
- Barnyardgrass plant response rating (0 to 100 scale, 0 is no effect, 100 is complete control) ([13]; Postemergence, 500 g ai/ha): 90
- Plant response rating, Barnyardgrass ([13]; preemergence, 500 g ai/ha, 0 to 100 scale (0 no effect, 100 complete control)): 90
- Plant response rating, Foxtail, Giant [14, 15]: 80
- Plant response rating, Foxtail, Giant [14, 16]: 60
- Foxtail, Giant plant response rating (0 to 100 scale, 0 is no effect, 100 is complete control) ([14]; Postemergence, 500 g ai/ha): 90
- Plant response rating, Foxtail, Giant ([14]; preemergence, 500 g ai/ha, 0 to 100 scale): 90

Compound: O=C1NCC(c2cnn(CC(F)(F)F)c2)C1C(=O)Nc1ccccc1C(F)(F)F (stereo not drawn) [Compound 300]
- Plant response rating, Ducksalad [1]: 0
- Plant response rating, Kochia [2, 19]: 0
- Plant response rating, Kochia [2, 20]: 0
- Plant response rating, Kochia [2, 21]: 0
- Plant response rating, Kochia [2, 17]: 0
- Plant response rating, Barnyardgrass [3]: 0
- Plant response rating, Corn [4, 22]: 0
- Plant response rating, Corn [4, 23]: 0
- Plant response rating, Ragweed [5, 19]: 0
- Plant response rating, Ragweed [5, 20]: 0
- Plant response rating, Ragweed [5, 21]: 0
- Plant response rating, Ragweed [5, 17]: 0
- Plant response rating, Galium [6, 22]: 0
- Plant response rating, Galium [6, 23]: 0
- Plant response rating, Blackgrass [7, 22]: 0
- Plant response rating, Blackgrass [7, 23]: 0
- Plant response rating, Ryegrass, Italian [8, 19]: 0
- Plant response rating, Ryegrass, Italian [8, 20]: 0
- Plant response rating, Ryegrass, Italian [8, 21]: 0
- Ryegrass, Italian plant response rating ([8]; Preemergence, 500 g ai/ha, visual rating on 0 to 100 scale (0 no effect, 100 complete control)): 0
- Plant response rating, Wheat [9, 22]: 0
- Plant response rating, Wheat [9, 23]: 0
- Plant response rating, Rice [10]: 0
- Plant response rating, Sedge, Umbrella [11]: 0
- Plant response rating, Pigweed [12, 19]: 0
- Plant response rating, Pigweed [12, 20]: 0
- Plant response rating, Pigweed [12, 21]: 0
- Plant response rating, Pigweed [12, 17]: 0
- Plant response rating, Barnyardgrass [13, 19]: 0
- Plant response rating, Barnyardgrass [13, 20]: 0
- Plant response rating, Barnyardgrass [13, 21]: 0
- Plant response rating, Barnyardgrass [13, 17]: 0
- Plant response rating, Foxtail, Giant [14, 19]: 0
- Plant response rating, Foxtail, Giant [14, 20]: 0
- Plant response rating, Foxtail, Giant [14, 21]: 0
- Plant response rating, Foxtail, Giant [14, 17]: 0
